Patent publication US20030036103A1, “Methods and compositions for diagnosis and treatment of vascular conditions” (priority 2001, published 2003)

Experiments:
Type in all cases: cell-based
endothelial cells = test: Heparanase expression in endothelial cells induced by lysolecithin
[1] = system: human microvascular endothelial cells (HMVEC); test: Induction of endothelial heparanase protein by cytokines (immunoblot); details: TNFα
Procedure: Experiments were done on human microvascular endothelial cells (HMVEC) grown in 48-well plates (˜90% confluency). To induce heparanase activity, culture media was replaced with 200 μl Dulbecco's modified Eagle's medium (DMEM) complemented with 1% bovine serum albumin (BSA) and 100 ng biotinylated HS with or without stimulants (5 ng/ml TGFα, 1 ng/ml IL 1β, or 200 ng/ml VEGF). Cells were incubated in a cell culture incubator for 16-18 hours and the entire 200 μmedia was added to a streptavidin-coated plate and followed by standard color development assay as described in Example 2. The secreted proteins were analyzed by SDS-PAGE and heparanase protein was detected by immunoblotting using polyclonal anti-human heparanase antibody.
Human microvascular endothelial cells (HMVEC) were grown in 48-well plates (˜90% confluency). To induce heparanase activity, culture media was replaced with 200 μl Dulbecco's modified Eagle's medium (DMEM) complemented with 1% bovine serum albumin (BSA) and 100 ng biotinylated HS with 0, 0.02, 1.5 and 5 ng/ml of TNFα. The secreted heparanase was detected by immunoblotting the culture media with anti-human heparanase antibody.

[2] = system: human microvascular endothelial cells (HMVEC); test: TNFα-induced heparanase secretion by endothelial cells with signaling inhibitors (immunoblot); details: HMVEC incubated with TNFα and inhibitor for 16 h; wortmannin 0.1 and 0.5 μM, Ly294002 10 and 50 μM, SN50 10 μM, FPT inhibitor III 100 μM, PD98059 5 μM, SB203580 650 nM, ZM336372 200 nM, caspase inhibitor III 10 μM; FIG. 5
Procedure: Human microvascular endothelial cells (HMVEC) were grown in 48-well plates (˜90% confluency). To induce heparanase activity, culture media was replaced with 200 μl Dulbecco's modified Eagle's medium (DMEM) complemented with 1% bovine serum albumin (BSA), 100 ng biotinylated HS and TNFα with or without (FIG. 5A) P13 kinase inhibitors (wortmannin, 0.1 μM and 0.5 μM, or Ly294002, 10 μM and 50 μM), (FIG. 5B) NFκB inhibitor (SN50, 10 μM), several MAP kinase inhibitors (FIG. 5C)—either 100 μM FPT inhibitor III (FPT, inhibits Ras processing in cells), 5 μM MAP kinase (MEK), inhibitor PD98059 (PD), 650 nM p38 kinase inhibitor SB203580 (SB), 200 nM c-Raf inhibitor ZM336372 (ZM); or an inhibitor cocktail (Cl) that contains all of the four inhibitors; or broad-spectrum caspase inhibitor III (Casp-I, 10 μM) (FIG. 5D). The cells were incubated with TNFα and the inhibitors for 16 h. The culture media was collected and the secreted proteins were analyzed by SDS-PAGE and heparanase protein was detected by immunoblotting using polyclonal anti-human heparanase antibody.

Question: lysolecithin was tested. Which “induction of heparanase expression in endothelial cells” value (endothelial cells) did it give?
Answer: induces heparanase expression

Question: For TNFα, which “induction of heparanase in endothelial cells” value [1] is on record?
Answer: induces heparanase

Question: With `C[S+]([O-])c1ccc(-c2nc(-c3ccncc3)c(-c3ccc(F)cc3)[nH]2)cc1` (stereo not drawn) [SB203580] as the compound, how does the “inhibition of TNFα-induced heparanase secretion” value (shortened to “inhibition”) [2] read?
Answer: do not inhibit

Question: How did the “inhibition” value [2] turn out when `Cc1ccc(NC(=O)c2cccc(N(C)C)c2)cc1NC(=O)c1ccc(O)cc1` [ZM336372] was run?
Answer: do not inhibit

Question: Which “inhibition” value [2] does the source give for `COC(=O)CC(NC(=O)OC(C)(C)C)C(=O)CF` (stereo not drawn) [caspase inhibitor III] here?
Answer: blocked heparanase secretion

Question: For `COc1cccc(-c2cc(=O)c3ccccc3o2)c1N` [PD98059], which “inhibition” value [2] is on record?
Answer: do not inhibit
